From patent US9284333B2, “Fused pyrroledicarboxamides and their use as pharmaceuticals” (SANOFI, priority 2012, dated 2016)

Target: Human TASK-1 channels (Homo sapiens (Human), UniProt O14649)
Assay: Determination of the activity on the TASK-1 channel in Xenopus oocytes (two-microelectrode voltage clamp)
Type: cell-based
Settings: compound concentration 5 μM
Summary of the method: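 Xenopus oocytes were injected with human TASK-1 cRNA and recorded two days later by two-microelectrode voltage clamp, holding at −90 mV with 500 ms steps to 40 mV. Superfusion used ND96, pH 7.4, at room temperature, with rising compound concentrations; percentage inhibition of control current was fitted to a dose-response curve for IC50.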

Chain of Human TASK-1 channels (O14649 whole entry): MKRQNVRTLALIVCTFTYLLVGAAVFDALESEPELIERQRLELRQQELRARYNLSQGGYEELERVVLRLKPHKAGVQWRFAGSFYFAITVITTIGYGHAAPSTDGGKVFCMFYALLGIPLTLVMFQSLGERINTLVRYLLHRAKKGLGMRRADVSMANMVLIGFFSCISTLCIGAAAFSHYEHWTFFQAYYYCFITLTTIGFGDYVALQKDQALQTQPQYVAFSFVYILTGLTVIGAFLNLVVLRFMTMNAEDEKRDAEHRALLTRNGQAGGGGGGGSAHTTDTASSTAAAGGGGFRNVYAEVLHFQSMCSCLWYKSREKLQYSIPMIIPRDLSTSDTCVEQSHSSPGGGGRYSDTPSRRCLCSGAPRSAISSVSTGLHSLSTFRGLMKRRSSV

Going from `C[C@@H](NC(=O)c1cc(C(=O)N2CCC[C@@H]2C)n2c1COCC2)c1ccc(Cl)cc1` [16as, 6-((S)-2-Methyl-pyrrolidine-1-carbonyl)-3,4-dihydro-1H-pyrrolo[2,1-c][1,4]oxazine-8-carboxylic acid [(R)-1-(4-chloro-phenyl)-ethyl]-amide] to `CC[C@@H](NC(=O)c1cc(C(=O)N2CCC[C@@H]2C)n2c1COCC2)c1ccc(C)cc1` [16be, 6-((S)-2-Methyl-pyrrolidine-1-carbonyl)-3,4-dihydro-1H-pyrrolo[2,1-c][1,4]oxazine-8-carboxylic acid ((R)-1-p-tolyl-propyl)-amide], the inhibition at 5 µM falls from 87% to 85%.

Compared with `CC(C)[C@@H](NC(=O)c1cc(C(=O)N2CCC[C@@H]2C)c2n1CCOC2)c1ccc(C(F)(F)F)nc1` [16po, 8-((S)-2-Methyl-pyrrolidine-1-carbonyl)-3,4-dihydro-1H-pyrrolo[2,1-c][1,4]oxazine-6-carboxylic acid [(R)-2-methyl-1-(6-trifluoromethyl-pyridin-3-yl)-propyl]-amide], `CC[C@H](NC(=O)c1cc(C(=O)N[C@H](C)c2ncccn2)c2n1CCOC2)c1ccccc1` [16kg, 3,4-Dihydro-1H-pyrrolo[2,1-c][1,4]oxazine-6,8-dicarboxylic acid 6-[((S)-1-phenyl-propyl)-amide] 8-[((R)-1-pyrimidin-2-yl-ethyl)-amide]] is lower in inhibition at 5 µM: 71% for the first, 70% for the second.

`CC[C@@H](NC(=O)c1cc(C(=O)NCC2(c3ccccc3)CCCC2)n2c1CCCC2)c1ccccc1` [16ng, 5,6,7,8-Tetrahydro-indolizine-1,3-dicarboxylic acid 3-[(1-phenyl-cyclopentylmethyl)-amide] 1-[((R)-1-phenyl-propyl)-amide]] gave an inhibition at 5 µM of 55%.

Same assay, conditions: human TASK-1 expressed in Xenopus oocytes, room temperature; read-out: IC50 value for TASK-1 inhibition

`CC[C@@H](NC(=O)c1cc(C(=O)NC(C)c2cccc(S(=O)(=O)N(C)C)c2)n2c1COCC2)c1ccccc1` (stereo partly drawn) [16rj, 3,4-Dihydro-1H-pyrrolo[2,1-c][1,4]oxazine-6,8-dicarboxylic acid 6-{[1-(3-dimethylsulfamoyl-phenyl)-ethyl]-amide} 8-[((R)-1-phenyl-propyl)-amide]] and `CC[C@@H](NC(=O)c1cc(C(=O)N[C@H](CC)c2cccc(S(C)(=O)=O)c2)n2c1COCC2)c1ccccc1` [16jh, 3,4-Dihydro-1H-pyrrolo[2,1-c][1,4]oxazine-6,8-dicarboxylic acid 6-{[(R)-1-(3-methanesulfonyl-phenyl)-propyl]-amide}-8-[((R)-1-phenyl-propyl)-amide]] are within 1.5-fold of each other in IC50: 1100 nM for the first, 780 nM for the second.

Compared with `CC[C@@H](NC(=O)c1cc(C(=O)N2CCC[C@@H]2C)n2c1COCC2)c1c(F)cccc1F` [16t, 6-((S)-2-Methyl-pyrrolidine-1-carbonyl)-3,4-dihydro-1H-pyrrolo[2,1-c][1,4]oxazine-8-carboxylic acid [(R)-1-(2,6-difluoro-phenyl)-propyl]-amide], `CC[C@@H](NC(=O)c1cc(C(=O)N2CCC[C@@H]2C)n2c1COCC2)c1ccc(F)cc1F` [16v, 6-((S)-2-Methyl-pyrrolidine-1-carbonyl)-3,4-dihydro-1H-pyrrolo[2,1-c][1,4]oxazine-8-carboxylic acid [(R)-1-(2,4-difluoro-phenyl)-propyl]-amide] is 2.5-fold higher in IC50: 44 nM for the first, 110 nM for the second. The first is the more potent here.

Compared with `C[C@@H](NC(=O)c1cc(C(=O)N[C@H](C)c2ccc(F)cc2)n2c1COCC2)c1ccc(F)cc1` [16dm, 3,4-Dihydro-1H-pyrrolo[2,1-c][1,4]oxazine-6,8-dicarboxylic acid bis-{[(R)-1-(4-fluoro-phenyl)-ethyl]-amide}], `C[C@@H](NC(=O)c1cc(C(=O)N[C@H](C)c2ncccn2)c2n1CCOC2)c1ccc(F)cc1` (racemic) [16dy, 3,4-Dihydro-1H-pyrrolo[2,1-c][1,4]oxazine-6,8-dicarboxylic acid 6-{[(R)-1-(4-fluoro-phenyl)-ethyl]-amide} 8-[((R)-1-pyrimidin-2-yl-ethyl)-amide]] is 12-fold higher in IC50: 125 nM for the first, 1500 nM for the second. The first is the more potent here.

Compared with `CC[C@@H](NC(=O)c1cc(C(=O)N(C)CCOC)n2c1CCCC2)c1ccccc1` [16mh, 5,6,7,8-Tetrahydro-indolizine-1,3-dicarboxylic acid 3-[(2-methoxy-ethyl)-methyl-amide] 1-[((R)-1-phenyl-propyl)-amide]], `CC[C@@H](NC(=O)c1cc(C(=O)N[C@@H](C)C2CC2)n2c1CCCC2)c1ccccc1` [16mz, 5,6,7,8-Tetrahydro-indolizine-1,3-dicarboxylic acid 3-[((S)-1-cyclopropyl-ethyl)-amide] 1-[((R)-1-phenyl-propyl)-amide]] is 3.8-fold lower in IC50: 160 nM for the first, 42 nM for the second. The second is the more potent here.

`CC[C@@H](NC(=O)c1cc(C(=O)N2CCCC2c2cc(C)no2)n2c1COCC2)c1ccccc1` (stereo partly drawn) [16eq, 6-[2-(3-Methyl-isoxazol-5-yl)-pyrrolidine-1-carbonyl]-3,4-dihydro-1H-pyrrolo[2,1-c][1,4]oxazine-8-carboxylic acid ((R)-1-phenyl-propyl)-amide] and `CC[C@@H](NC(=O)c1cc(C(=O)N2CCCC2C(C)n2cccn2)n2c1COCC2)c1ccccc1` (stereo partly drawn) [16fw, 6-[2-(1-Pyrazol-1-yl-ethyl)-pyrrolidine-1-carbonyl]-3,4-dihydro-1H-pyrrolo[2,1-c][1,4]oxazine-8-carboxylic acid ((R)-1-phenyl-propyl)-amide] are within 1.5-fold of each other in IC50: 480 nM for the first, 420 nM for the second.

Going from `CC[C@@H](NC(=O)c1cc(C(=O)N2CCC[C@@H]2C)n2c1COCC2)c1ncccc1Cl` [16pf] to `CC[C@@H](NC(=O)c1cc(C(=O)N2CCC[C@@H]2C)n2c1COCC2)c1ccc(C(F)(F)F)c(Cl)c1` [16c, 6-((S)-2-Methyl-pyrrolidine-1-carbonyl)-3,4-dihydro-1H-pyrrolo[2,1-c][1,4]oxazine-8-carboxylic acid [(R)-1-(3-chloro-4-trifluoromethyl-phenyl)-propyl]-amide], the IC50 falls from 99 nM to 13 nM (7.6-fold).

`CC[C@@H](NC(=O)c1cc(C(=O)N2CCC[C@@H]2C)n2c1COCC2)c1cnc(C(F)(F)F)c(OC)c1` [16cw, 6-((S)-2-Methyl-pyrrolidine-1-carbonyl)-3,4-dihydro-1H-pyrrolo[2,1-c][1,4]oxazine-8-carboxylic acid [(R)-1-(5-methoxy-6-trifluoromethyl-pyridin-3-yl)-propyl]-amide] and `CC[C@@H](NC(=O)c1cc(C(=O)N2CCC[C@H]2C)n2c1COCC2)c1ccc(C(F)(F)F)nc1` [16ny, 6-((R)-2-Methyl-pyrrolidine-1-carbonyl)-3,4-dihydro-1H-pyrrolo[2,1-c][1,4]oxazine-8-carboxylic acid [(R)-1-(6-trifluoromethyl-pyridin-3-yl)-propyl]-amide] are within 1.5-fold of each other in IC50: 2400 nM for the first, 2800 nM for the second.

Compared with `CC[C@@H](NC(=O)c1cc(C(=O)N2CCC[C@@H]2c2ccccc2)n2c1CCCC2)c1ccccc1` [16mm, 3-((R)-2-Phenyl-pyrrolidine-1-carbonyl)-5,6,7,8-tetrahydro-indolizine-1-carboxylic acid ((R)-1-phenyl-propyl)-amide], `CC[C@@H](NC(=O)c1cc(C(=O)N[C@@H](c2ccccc2)C2CC2)n2c1CCCC2)c1ccccc1` [16mv, 5,6,7,8-Tetrahydro-indolizine-1,3-dicarboxylic acid 3-[((R)-cyclopropyl-phenyl-methyl)-amide] 1-[((R)-1-phenyl-propyl)-amide]] is 2.5-fold lower in IC50: 120 nM for the first, 48 nM for the second.

Compared with `CC[C@@H](NC(=O)c1cc(C(=O)N2CCC[C@@H]2C)n2c1C(C)OCC2)c1ccccc1` (stereo partly drawn) [16lf, 1-Methyl-6-((S)-2-methyl-pyrrolidine-1-carbonyl)-3,4-dihydro-1H-pyrrolo[2,1-c][1,4]oxazine-8-carboxylic acid ((R)-1-phenyl-propyl)-amide], `CC[C@@H](NC(=O)c1cc(C(=O)N2CC[C@H](OC)C2)n2c1COCC2)c1ccccc1` [16ek, 6-((S)-3-Methoxy-pyrrolidine-1-carbonyl)-3,4-dihydro-1H-pyrrolo[2,1-c][1,4]oxazine-8-carboxylic acid ((R)-1-phenyl-propyl)-amide] is 5.1-fold higher in IC50: 110 nM for the first, 560 nM for the second.

First: CC[C@@H](NC(=O)c1cc(C(=O)N2CCCC2CN2CCOCC2)n2c1COCC2)c1ccccc1 (stereo partly drawn) [16fr, 6-(2-Morpholin-4-ylmethyl-pyrrolidine-1-carbonyl)-3,4-dihydro-1H-pyrrolo[2,1-c][1,4]oxazine-8-carboxylic acid ((R)-1-phenyl-propyl)-amide]
Second: CC[C@@H](NC(=O)c1cc(C(=O)N2CCC[C@@H]2C)n2c1COCC2)c1ccccc1C(F)(F)F [16s, 6-((S)-2-Methyl-pyrrolidine-1-carbonyl)-3,4-dihydro-1H-pyrrolo[2,1-c][1,4]oxazine-8-carboxylic acid [(R)-1-(2-trifluoromethyl-phenyl)-propyl]-amide]
The IC50 of the first is 5.2-fold higher: 1300 nM for the first, 250 nM for the second. The second is the more potent here.

Compared with `CCC[C@@H](NC(=O)c1cc(C(=O)N2CCC[C@@H]2C)n2c1COCC2)c1ccc(C(F)(F)F)nc1` [16bi, 6-((S)-2-Methyl-pyrrolidine-1-carbonyl)-3,4-dihydro-1H-pyrrolo[2,1-c][1,4]oxazine-8-carboxylic acid [(R)-1-(6-trifluoromethyl-pyridin-3-yl)-butyl]-amide], `CC[C@@H](NC(=O)c1cc(C(=O)NCC2(O)CC2)n2c1COCC2)c1ccccc1` [16hi, 3,4-Dihydro-1H-pyrrolo[2,1-c][1,4]oxazine-6,8-dicarboxylic acid 6-[(1-hydroxy-cyclopropylmethyl)-amide] 8-[((R)-1-phenyl-propyl)-amide]] is 7.3-fold higher in IC50: 150 nM for the first, 1100 nM for the second. The first is the more potent here.

Compared with `CC[C@@H](NC(=O)c1cc(C(=O)NCC(C)C)n2c1COCC2)c1ccccc1` [16gf, 3,4-Dihydro-1H-pyrrolo[2,1-c][1,4]oxazine-6,8-dicarboxylic acid 6-isobutylamide 8-[((R)-1-phenyl-propyl)-amide]], `CCOC(=O)[C@H](C)N(C)C(=O)c1cc(C(=O)N[C@H](CC)c2ccccc2)c2n1CCOC2` [16l, (S)-2-{Methyl-[8-((R)-1-phenyl-propylcarbamoyl)-3,4-dihydro-1H-pyrrolo[2,1-c][1,4]oxazine-6-carbonyl]-amino}-propionic acid ethyl ester] is 2-fold lower in IC50: 340 nM for the first, 170 nM for the second. The second is the more potent here.

For `CC[C@@H](NC(=O)c1cc(C(=O)N[C@H](C)c2ccc(F)cc2)c2n1CSC2)c1ccccc1` [16kw, 1H-Pyrrolo[1,2-c]thiazole-5,7-dicarboxylic acid 7-{[(R)-1-(4-fluoro-phenyl)-ethyl]-amide} 5-[((R)-1-phenyl-propyl)-amide]], the IC50 was 95 nM.
